Experiment: recombinant barcode read abundance after kanamycin selection (control-corrected) (log10(CPM+1)); higher = more efficient recombination; sequences stand for … in AGTGCAGAGAAAATCGGCCAGTTTTCTCTGCCTGCAGTCCGCATGCCGT…AGATTTATGCAGCGGACTGCCTTTCTCCCAAAGTGATAAACCGGACAGTATCATGGACCGGTTTTCCCGGTAATCCGTATTTGCAAGGTTGGTTTCACT; site = the 11-nt target
In short: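 Targets and IS621 bridge RNA target-binding loops were paired in oligos, each with a promoter, a barcode and the J23119-driven first 104 bridge RNA bases. A vector carrying the remaining 73 bp and a T7-inducible recombinase received these by Gibson cloning, and the pool was co-electroporated into E. coli with a donor plasmid. Duplicate plates contained chloramphenicol/ampicillin LB agar (control) or chloramphenicol/ampicillin/kanamycin with 0.1 mM IPTG. Recombination efficiency comes from averaged, control-corrected counts per million of recombinant-junction barcodes, reported as log10(CPM+1).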
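Note: IS621 recombinase and bridge RNA in Escherichia coli cells.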

Sequence	recombinant barcode read abundance (log10)
CCAATCTCTTGGGTTCTAACCTGTTGCCT (site CGTATCTCTAG)	0.0477
CCACCTTCTTGGGTTCTAACCTGTTGCCT (site AGTTGGCCTTC)	0.161
CCACCTTCTTGGGTTCTAACCTGTTGCCT (site CCACCTTCTAG)	0.0666
CCACGAACTTGGGTTCTAACCTGTTGCTT (site CCAAGTACTAA)	0
CCACGAACTTGGGTTCTAACCTGTTGCTT (site CCACGAACTAA)	0.0915
CCACGGACTTGGGTTCTAACCTGTTGCCT (site CCAAGGACTAG)	0.143
CCACGGACTTGGGTTCTAACCTGTTGCCT (site CCACGGACTAG)	0.651
CCACGGACTTGGGTTCTAACCTGTTGCCT (site CCAGGGACTAG)	0.129
CCACGGACTTGGGTTCTAACCTGTTGCCT (site CCATGGACTAG)	0.0265
CCATACTCTTGGGTTCTAACCTGTTGCTT (site CCATACTCTAA)	1.17
CCATACTCTTGGGTTCTAACCTGTTGCTT (site CCATGGTCTAA)	0
CCATCCACTTGGGTTCTAACCTGTTGCCT (site CCATCCACTAG)	0.318
CCATCCACTTGGGTTCTAACCTGTTGCCT (site TCATCCGCTAG)	0.0523
CCATGAACTTGGGTTCTAACCTGTTGCCA (site CCATCAACTAG)	0.131
CCATGAACTTGGGTTCTAACCTGTTGCCA (site CCATGAACTTG)	0.0609
CCGATCCCTTGGGTTCTAACCTGTTGCCT (site CAGATCCCTAG)	0.348
CCGATCCCTTGGGTTCTAACCTGTTGCCT (site CCGATCCCTAG)	1.4
CCGATCCCTTGGGTTCTAACCTGTTGCCT (site CGGATCCCTAG)	0.213
CCGATCCCTTGGGTTCTAACCTGTTGCCT (site CTGATCCCTAG)	0.107
CCGCACACTTGGGTTCTAACCTGTTGCCT (site ACGCACACTAG)	0.191
CCGCACACTTGGGTTCTAACCTGTTGCCT (site CCGCACACTAG)	1.8
CCGCACACTTGGGTTCTAACCTGTTGCCT (site GCGCACACTAG)	0.213

Sequence	recombinant barcode read abundance (log10)
CCGCACACTTGGGTTCTAACCTGTTGCCT (site TCGCACACTAG)	0.305
CCGCGAGCTTGGGTTCTAACCTGTTGCCG (site CCGCGAGCTCG)	0.599
CCGCGAGCTTGGGTTCTAACCTGTTGCCG (site GATGTGCCTAC)	0.137
CCGCTAGCTTGGGTTCTAACCTGTTGCCT (site ACGCTAGCTAG)	0.0362
CCGCTAGCTTGGGTTCTAACCTGTTGCCT (site CCGCTAGCTAG)	0.183
CCGCTAGCTTGGGTTCTAACCTGTTGCCT (site GCGCTAGCTAG)	0.0389
CCGCTAGCTTGGGTTCTAACCTGTTGCCT (site TCGCTAGCTAG)	0.046
CCGCTTACTTGGGTTCTAACCTGTTGCCT (site CCGCTCGCTAG)	0.0115
CCGCTTACTTGGGTTCTAACCTGTTGCCT (site CCGCTTACTAG)	0.0232
CCGGACCCTTGGGTTCTAACCTGTTGCCT (site CCGGACCCTAG)	1.88
CCGGACCCTTGGGTTCTAACCTGTTGCCT (site GCGGACGCTAG)	0.232
CCGGAGCCTTGGGTTCTAACCTGTTGCCT (site CCGAAGCCTAG)	1.42
CCGGAGCCTTGGGTTCTAACCTGTTGCCT (site CCGCAGCCTAG)	0.271
CCGGAGCCTTGGGTTCTAACCTGTTGCCT (site CCGGAGCCTAG)	2.41
CCGGAGCCTTGGGTTCTAACCTGTTGCCT (site CCGTAGCCTAG)	0.413
CCGGGGTCTTGGGTTCTAACCTGTTGCCT (site ACGGGGTCTAG)	0.789
CCGGGGTCTTGGGTTCTAACCTGTTGCCT (site CCGGGGTCTAG)	1.76
CCGGGGTCTTGGGTTCTAACCTGTTGCCT (site GCGGGGTCTAG)	0.0665
CCGGGGTCTTGGGTTCTAACCTGTTGCCT (site TCGGGGTCTAG)	0.0922
CCGGGTTCTTGGGTTCTAACCTGTTGCCT (site CAGGGTTCTAG)	0.145
CCGGGTTCTTGGGTTCTAACCTGTTGCCT (site CCGGGTTCTAG)	1.79
CCGGGTTCTTGGGTTCTAACCTGTTGCCT (site CGGGGTTCTAG)	0.16

Sequence	recombinant barcode read abundance (log10)
CCGGGTTCTTGGGTTCTAACCTGTTGCCT (site CTGGGTTCTAG)	0.154
CCGGTCCCTTGGGTTCTAACCTGTTGCAG (site CCGGTCCCTCT)	2.07
CCGGTCCCTTGGGTTCTAACCTGTTGCAG (site GGACAGTCTAC)	0.307
CCGTAAACTTGGGTTCTAACCTGTTGCCT (site CCGTAAACTAG)	0.35
CCGTAAACTTGGGTTCTAACCTGTTGCCT (site CCGTAACCTAG)	0.0417
CCGTAAACTTGGGTTCTAACCTGTTGCCT (site CCGTAAGCTAG)	0.418
CCGTAAACTTGGGTTCTAACCTGTTGCCT (site CCGTAATCTAG)	0.0331
CCGTAACCTTGGGTTCTAACCTGTTGCCT (site CCGTAAACTAG)	0.149
CCGTAACCTTGGGTTCTAACCTGTTGCCT (site CCGTAACCTAG)	1.57
CCGTAACCTTGGGTTCTAACCTGTTGCCT (site CCGTAAGCTAG)	0.00896
CCGTAACCTTGGGTTCTAACCTGTTGCCT (site CCGTAATCTAG)	0.237
CCGTAATCTTGGGTTCTAACCTGTTGCCT (site CCGTAAACTAG)	0.0257
CCGTAATCTTGGGTTCTAACCTGTTGCCT (site CCGTAACCTAG)	0.47
CCGTAATCTTGGGTTCTAACCTGTTGCCT (site CCGTAAGCTAG)	0.211
CCGTAATCTTGGGTTCTAACCTGTTGCCT (site CCGTAATCTAG)	0.308
CCGTAGCCTTGGGTTCTAACCTGTTGCCT (site CCGAAGCCTAG)	0.129
CCGTAGCCTTGGGTTCTAACCTGTTGCCT (site CCGCAGCCTAG)	0.288
CCGTAGCCTTGGGTTCTAACCTGTTGCCT (site CCGGAGCCTAG)	0.162
CCGTAGCCTTGGGTTCTAACCTGTTGCCT (site CCGTAGCCTAG)	1.03
CCGTAGTCTTGGGTTCTAACCTGTTGCCT (site CCGTACTCTAG)	0.0425
CCGTAGTCTTGGGTTCTAACCTGTTGCCT (site CCGTAGTCTAG)	0.899
CCGTCAACTTGGGTTCTAACCTGTTGCCT (site CCGTCAACTAG)	0.226

Sequence	recombinant barcode read abundance (log10)
CCGTCAACTTGGGTTCTAACCTGTTGCCT (site GTACTCTCTCT)	0.0368
CCGTCATCTTGGGTTCTAACCTGTTGCCT (site CCGTCATCTAG)	0.108
CCGTCATCTTGGGTTCTAACCTGTTGCCT (site CCGTCGTCTAG)	0.234
CCGTGCCCTTGGGTTCTAACCTGTTGCCT (site CCGTGCCCTAG)	0.676
CCGTGCCCTTGGGTTCTAACCTGTTGCCT (site GCGTGCCCTAG)	0.0432
CCGTGGCCTTGGGTTCTAACCTGTTGCTT (site CCGTGGACTAG)	0.0169
CCGTGGCCTTGGGTTCTAACCTGTTGCTT (site CCGTGGCCTAA)	0.176
CCGTGTCCTTGGGTTCTAACCTGTTGCCG (site CCGTGTCCTCG)	1.32
CCGTGTCCTTGGGTTCTAACCTGTTGCCG (site GCGTGTCCTTG)	0
CCGTTATCTTGGGTTCTAACCTGTTGCCT (site CCGATATCTAG)	0.0227
CCGTTATCTTGGGTTCTAACCTGTTGCCT (site CCGCTATCTAG)	0
CCGTTATCTTGGGTTCTAACCTGTTGCCT (site CCGGTATCTAG)	0.0837
CCGTTATCTTGGGTTCTAACCTGTTGCCT (site CCGTTATCTAG)	0.0274
CCTAACGCTTGGGTTCTAACCTGTTGCCT (site CCTAACGCTAG)	0.625
CCTAACGCTTGGGTTCTAACCTGTTGCCT (site CCTCGCGCTAG)	0.0688
CCTAAGACTTGGGTTCTAACCTGTTGCCC (site CCTAAGACTAG)	0.23
CCTAAGACTTGGGTTCTAACCTGTTGCCC (site CCTAAGACTCG)	0.0665
CCTAAGACTTGGGTTCTAACCTGTTGCCC (site CCTAAGACTGG)	0.16
CCTAAGACTTGGGTTCTAACCTGTTGCCC (site CCTAAGACTTG)	0.0914
CCTAAGCCTTGGGTTCTAACCTGTTGCGT (site CCTAAACCTAC)	1.23

From the supplement of paper PMC11208160
